Article PMC8659250, “Adjusting the Structure of β-Cyclodextrin to Improve Complexation of Anthraquinone-Derived Drugs” (Molecules, 2021)
Structures can show the parent of a compound that is named as a salt. Where two headings read alike, the source gives them in different places.

How the values were obtained:
[1] = cited from earlier work
[2] = Determination of pKa values of CD derivatives by UV-Vis spectroscopy; type: physicochemical; conditions: Britton–Robinson buffer, pH range 2.7 to 9.5, triazole linker
Source text: Due to the fact that the triazole linker in CD derivatives contains a basic nitrogen atom that can be protonated at an acidic pH, we determined the value of pKa by UV-Vis spectroscopy. The spectra of βCDGAL, βCDLip, and βCDTriazol, at the pH range between 2.7 and 9.5, are presented on Figure 3. The dependence of the absorbance of the peak maximum at wavelengths in the range of 210–220 on the pH of the buffer is presented in the figures. According to the equation […] for equal concentrations of the protonated and deprotonated forms, pKa = pH; the pKa value, for all three derivatives containing the triazole linker, was determined to be 4.5.
The UV-Vis measurements were performed using an Agilent Technologies Cary 60 UV-Vis Spectrophotometer (Santa Clara, CA, USA). All UV-Vis spectra were measured using quartz cuvettes with a 1 cm optical path length. For pKa determination the 0.2 mg/mL concentration of βCDTriazole, βCDGAL or βCDLip in Britton–Robinson buffer were used.

[3] = Phase solubility diagrams (Higuchi and Connors) of AQ2CA with cyclodextrins; type: physicochemical; conditions: for K1:1 (association constant, AQ2CA–cyclodextrin): phase solubility diagram, 25 °C; for Increase in solubility of AQ2CA (in words): pH 3.0
Source text: (§1) Anthraquinone-2-carboxylic acid (AQ2CA) is a poorly water-soluble drug (SAQ2CA in water = 3.98 × 10^−5 M). […] An improvement in the aqueous solubility of AQ2CA would improve the biological availability of the drug. Such a drug solubilization effect was achieved via complexation using appropriate CD derivatives. The phase solubility method developed by Higuchi and Connors was employed to quantify the solubilization ability of cyclodextrins. The solubility values of AQ2CA in water, BR buffer at pH 7.4 (pH corresponding to the physiological conditions), and BR buffer at pH 3.0, with the addition of CDs was determined. The pH values characteristic for bodily fluids (pH 7.4) and for gastric juices (pH 3) were chosen for these measurements. […] According to the Higuchi and Connors classification, the phase solubility diagrams for anthraquinone-2-carboxylic acid with various cyclodextrin concentrations can be classified as AL type.
The association constant of the AQ2CA–cyclodextrin complex (1:1) was calculated from the linear plot of the phase solubility diagrams using Equation (1). The lines are started at the point of initial drug solubility, meaning, i.e., without the addition of cyclodextrin. The values of K1:1, as well as the solubility increase and correlation coefficients of the phase solubility diagrams, are presented in Table 1.
Solubility studies of anthraquinone-2-carboxylic acid with three different cyclodextrins were carried out according to the Higuchi and Connors procedure. […] A constant amount of AQ2CA (3 mM) that exceeded its solubility was added into the cyclodextrin solution. Molar ratios of AQ2CA/CD were 1:0, 1:0.2, 1:0.4, 1:0.6, 1:0.8, and 1:1. Three samples of each molar ratio were prepared. The suspensions were shaken for 24 h at 25 °C, after which equilibrium was reached. After 24 h, the concentration of the dissolved drug was monitored by UV-Vis spectroscopy and plateaued; thus, the maximum dissolved drug was achieved. Subsequently, the samples were filtered using a 0.45 µm filter and appropriately diluted. The aliquots of solutions were assayed for AQ2CA again, by UV-Vis spectroscopy, in the 200–600 nm range with a maximum absorbance value for AQ2CA at 335 nm. […] The association constants of the inclusion complexes were determined using the following equation:(1) K1:1=Slope/S0(1−Slope) where K1:1 is the association constant and S0 is the solubility of AQ2CA in the absence of cyclodextrin. The slope was measured by UV-Vis spectroscopy from the initial straight-line part of the AQ2CA concentration vs. CD concentration plot. The uncertainty was determined as the standard deviation of the three values of the association constants obtained from three different repetitions of the given system.

[4] = Solubility of AQ2CA without cyclodextrins (UV-Vis); type: physicochemical; conditions: 25 °C, thermodynamic from solid
Source text: as §1
Solubility studies of anthraquinone-2-carboxylic acid with three different cyclodextrins were carried out according to the Higuchi and Connors procedure. The solutions of cyclodextrin in water and Britton–Robinson buffers (pH 7.4 and […]) were prepared in a concentration range of 0–3 mM. A constant amount of AQ2CA (3 mM) that exceeded its solubility was added into the cyclodextrin solution. Molar ratios of AQ2CA/CD were 1:0, 1:0.2, 1:0.4, 1:0.6, 1:0.8, and 1:1. Three samples of each molar ratio were prepared. The suspensions were shaken for 24 h at 25 °C, after which equilibrium was reached. After 24 h, the concentration of the dissolved drug was monitored by UV-Vis spectroscopy and plateaued; thus, the maximum dissolved drug was achieved. Subsequently, the samples were filtered using a 0.45 µm filter and appropriately diluted. The aliquots of solutions were assayed for AQ2CA again, by UV-Vis spectroscopy, in the 200–600 nm range with a maximum absorbance value for AQ2CA at 335 nm. […] The association constants of the inclusion complexes were determined using the following equation:(1) K1:1=Slope/S0(1−Slope) where K1:1 is the association constant and S0 is the solubility of AQ2CA in the absence of cyclodextrin. The slope was measured by UV-Vis spectroscopy from the initial straight-line part of the AQ2CA concentration vs. CD concentration plot. The uncertainty was determined as the standard deviation of the three values of the association constants obtained from three different repetitions of the given system.

SMILES: COc1cccc2c1C(=O)c1c(O)c3c(c(O)c1C2=O)C[C@@](O)(C(C)=O)C[C@@H]3O[C@H]1C[C@H](N)[C@H](O)[C@H](C)O1 [DNR, daunorubicin]
- pKa [1]: 7.48

SMILES: O=C(N[C@H]1C(O)O[C@H](CO)[C@H](O)[C@@H]1O)OCc1cn(C[C@H]2O[C@@H]3O[C@H]4[C@H](O)[C@@H](O)[C@@H](O[C@H]5[C@H](O)[C@@H](O)[C@@H](O[C@H]6[C@H](O)[C@@H](O)[C@@H](O[C@H]7[C@H](O)[C@@H](O)[C@@H](O[C@H]8[C@H](O)[C@@H](O)[C@@H](O[C@H]9[C@H](O)[C@@H](O)[C@@H](O[C@H]2[C@H](O)[C@H]3O)O[C@@H]9CO)O[C@@H]8CO)O[C@@H]7CO)O[C@@H]6CO)O[C@@H]5CO)O[C@@H]4CO)nn1 (stereo partly drawn) [βCDGAL]
- pKa [2]: 4.5
- K1:1 (association constant, AQ2CA–cyclodextrin) ([3]; Britton–Robinson buffer pH 3.0): 2760 ± 110 M⁻¹
- K1:1 (association constant, AQ2CA–cyclodextrin) ([3]; Britton–Robinson buffer pH 7.4): 1300 ± 60 M⁻¹
- Increase in solubility of AQ2CA (in words) [3]: almost tenfold increase
- K1:1 (association constant, AQ2CA–cyclodextrin) ([3]; water): 840 ± 45 M⁻¹

SMILES: CCCc1cn(C[C@H]2O[C@@H]3O[C@H]4[C@H](O)[C@@H](O)[C@@H](O[C@H]5[C@H](O)[C@@H](O)[C@@H](O[C@H]6[C@H](O)[C@@H](O)[C@@H](O[C@H]7[C@H](O)[C@@H](O)[C@@H](O[C@H]8[C@H](O)[C@@H](O)[C@@H](O[C@H]9[C@H](O)[C@@H](O)[C@@H](O[C@H]2[C@H](O)[C@H]3O)O[C@@H]9CO)O[C@@H]8CO)O[C@@H]7CO)O[C@@H]6CO)O[C@@H]5CO)O[C@@H]4CO)nn1 [βCDTriazol]
- pKa [2]: 4.5

SMILES: O=C(O)c1ccc2c(c1)C(=O)c1ccccc1C2=O [AQ2CA, 9,10-dihydro-9,10-dioxo-2-anthracenecarboxylic acid]
- solubility at 24 h ([4]; aqueous buffer, Britton–Robinson buffer pH 3.0, without CDs, read-out: Solubility of AQ2CA in Britton–Robinson buffer, pH 3.0): 1.43 µM
- solubility at 24 h ([4]; aqueous buffer, Britton–Robinson buffer pH 3.0, read-out: Solubility in Britton–Robinson buffer, pH 3.0 without CDs): 0.00036 mg/mL
- solubility at 24 h ([4]; aqueous buffer, Britton–Robinson buffer pH 7.4, without CDs, read-out: Solubility of AQ2CA in Britton–Robinson buffer, pH 7.4): 1740 µM
- solubility at 24 h ([4]; aqueous buffer, Britton–Robinson buffer pH 7.4, read-out: Solubility in Britton–Robinson buffer, pH 7.4 without CDs): 0.44 mg/mL
- solubility at 24 h ([4]; water, without CDs, read-out: Solubility of AQ2CA in water): 39.8 µM
- solubility at 24 h ([4]; water, water, read-out: Solubility in water without CDs): 0.01 mg/mL

SMILES: O=C(CCCCC1CCSS1)OCc1cn(C[C@H]2O[C@@H]3O[C@H]4[C@H](O)[C@@H](O)[C@@H](O[C@H]5[C@H](O)[C@@H](O)[C@@H](O[C@H]6[C@H](O)[C@@H](O)[C@@H](O[C@H]7[C@H](O)[C@@H](O)[C@@H](O[C@H]8[C@H](O)[C@@H](O)[C@@H](O[C@H]9[C@H](O)[C@@H](O)[C@@H](O[C@H]2[C@H](O)[C@H]3O)O[C@@H]9CO)O[C@@H]8CO)O[C@@H]7CO)O[C@@H]6CO)O[C@@H]5CO)O[C@@H]4CO)nn1 (stereo partly drawn) [βCDLip]
- pKa [2]: 4.5
- K1:1 (association constant, AQ2CA–cyclodextrin) ([3]; Britton–Robinson buffer pH 3.0): 2520 ± 175 M⁻¹
- K1:1 (association constant, AQ2CA–cyclodextrin) ([3]; Britton–Robinson buffer pH 7.4): 940 ± 25 M⁻¹
- Increase in solubility of AQ2CA (in words) [3]: almost tenfold increase
- K1:1 (association constant, AQ2CA–cyclodextrin) ([3]; water): 800 ± 40 M⁻¹

SMILES: NC[C@H]1O[C@@H]2O[C@H]3[C@H](O)[C@@H](O)[C@@H](O[C@H]4[C@H](O)[C@@H](O)[C@@H](O[C@H]5[C@H](O)[C@@H](O)[C@@H](O[C@H]6[C@H](O)[C@@H](O)[C@@H](O[C@H]7[C@H](O)[C@@H](O)[C@@H](O[C@H]8[C@H](O)[C@@H](O)[C@@H](O[C@H]1[C@H](O)[C@H]2O)O[C@@H]8CO)O[C@@H]7CO)O[C@@H]6CO)O[C@@H]5CO)O[C@@H]4CO)O[C@@H]3CO [βCDamine, 6-monodeoxy-6-monoamino-β-cyclodextrin hydrochloride]
- K1:1 (association constant, AQ2CA–cyclodextrin) ([3]; Britton–Robinson buffer pH 3.0): 2450 ± 200 M⁻¹
- K1:1 (association constant, AQ2CA–cyclodextrin) ([3]; water): 280 ± 30 M⁻¹
- pKa ([1]; amine derivative CD): 8.84

SMILES: OC[C@H]1O[C@@H]2O[C@H]3[C@H](O)[C@@H](O)[C@@H](O[C@H]4[C@H](O)[C@@H](O)[C@@H](O[C@H]5[C@H](O)[C@@H](O)[C@@H](O[C@H]6[C@H](O)[C@@H](O)[C@@H](O[C@H]7[C@H](O)[C@@H](O)[C@@H](O[C@H]8[C@H](O)[C@@H](O)[C@@H](O[C@H]1[C@H](O)[C@H]2O)O[C@@H]8CO)O[C@@H]7CO)O[C@@H]6CO)O[C@@H]5CO)O[C@@H]4CO)O[C@@H]3CO [βCD, β-Cyclodextrin]
- K1:1 (association constant, AQ2CA–cyclodextrin) ([3]; Britton–Robinson buffer pH 3.0): 1480 ± 180 M⁻¹
- K1:1 (association constant, AQ2CA–cyclodextrin) ([3]; Britton–Robinson buffer pH 7.4): 350 ± 40 M⁻¹
- K1:1 (association constant, AQ2CA–cyclodextrin) ([3]; water): 460 ± 45 M⁻¹
